The results in this text go back to ChEMBL document CHEMBL1201862, “PubChem BioAssay data set” (2004).

Assay [1] deals with T1, Disintegrin and metalloproteinase domain-containing protein 17 (Homo sapiens, UniProt P78536). Briefly: ADAM17 protease inhibitors, dose response, counter-screen for ADAM10 exosite inhibitor project, biochemical, quenched FRET substrate (AID 743253). On the technique in general: The purpose of a counterscreen is to sort out artefacts and off-target activity.
The target of the next assay is Kallikrein-7 (Homo sapiens, UniProt P49862). Nature of the assay: Fluorescence Intensity-based biochemical primary high throughput dose response assay to identify activators of kallikrein-7 (K7) zymogen.
The next assay has as its target T2, Cytochrome P450 1A2 (Homo sapiens, UniProt P05177).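 Further: PubChem cytochrome P450 panel assay, CYP1A2 panel member.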
T2 sequence (P05177 whole entry): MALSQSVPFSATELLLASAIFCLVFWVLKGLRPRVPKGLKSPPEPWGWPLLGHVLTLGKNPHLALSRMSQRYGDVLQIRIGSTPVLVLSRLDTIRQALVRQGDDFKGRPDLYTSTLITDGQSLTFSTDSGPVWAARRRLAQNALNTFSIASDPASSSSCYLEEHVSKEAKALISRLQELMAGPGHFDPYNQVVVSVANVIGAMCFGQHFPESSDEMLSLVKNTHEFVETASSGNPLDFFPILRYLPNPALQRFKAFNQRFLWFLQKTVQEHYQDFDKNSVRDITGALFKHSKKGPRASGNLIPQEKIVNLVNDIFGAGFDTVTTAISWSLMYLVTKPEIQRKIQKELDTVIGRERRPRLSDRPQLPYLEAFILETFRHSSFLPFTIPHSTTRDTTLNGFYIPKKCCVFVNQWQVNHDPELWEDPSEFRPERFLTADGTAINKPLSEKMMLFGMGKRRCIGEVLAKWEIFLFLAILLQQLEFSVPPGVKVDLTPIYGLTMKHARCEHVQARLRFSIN

Assay [2] in a line: ADAM10 protease inhibitors, dose response, selectivity assay for ADAM17 exosite inhibitor project, biochemical, FRET peptide substrate, recombinant human ADAM10 (AID 743259).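 Further: ADAM10 enzyme cleaving a FRET peptide substrate.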
A short description of assay [3]: growth suppression of PTEN-null colon cells, dose response, cell-based, HCT116 PTEN knockout (AID 1047).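 Further: HCT116 colon tumor cells with PTEN knocked out; cells exposed to compound for 60 hours before readout; potency for loss of cell viability measured by luminescence.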 The class given is functional.
Assay [4] can be described thus: growth suppression of beta-catenin-knockout colon cells, dose response, cell-based, HCT116, human colon tumor (AID 1045).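 Further: HCT116 colon tumor cells with beta catenin knocked out; cells exposed to compound for 60 hours.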 The class given is functional.
In assay [5] the target is T3, Heat shock factor protein 1 (Mus musculus, UniProt P38532).
T3 sequence (P38532 whole entry): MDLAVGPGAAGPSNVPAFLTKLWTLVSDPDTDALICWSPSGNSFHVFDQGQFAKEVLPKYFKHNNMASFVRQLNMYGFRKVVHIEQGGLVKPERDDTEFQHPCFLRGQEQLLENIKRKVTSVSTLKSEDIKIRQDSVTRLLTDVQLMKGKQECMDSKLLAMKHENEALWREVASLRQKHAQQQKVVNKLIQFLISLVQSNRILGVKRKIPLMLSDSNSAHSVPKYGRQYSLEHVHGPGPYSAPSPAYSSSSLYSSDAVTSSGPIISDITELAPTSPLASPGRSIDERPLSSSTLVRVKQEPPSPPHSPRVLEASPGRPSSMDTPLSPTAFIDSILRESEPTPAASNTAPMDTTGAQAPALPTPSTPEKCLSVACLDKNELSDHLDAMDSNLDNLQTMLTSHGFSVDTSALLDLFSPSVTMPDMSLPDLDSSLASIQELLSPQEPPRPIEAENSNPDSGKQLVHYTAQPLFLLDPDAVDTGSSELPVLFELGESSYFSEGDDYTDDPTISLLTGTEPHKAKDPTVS
Briefly: HSF1 potentiators in luciferase reporter cells, confirmation, cell-based, NIH3T3, luminescence, dose retest (AID 435004).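 Further: stress induced by proteasome inhibitor MG132 added 30 min after compound; luciferase reporter driven by HSF1 response element in NIH3T3 cells; actives raise luminescence as potentiators of the MG132 stress response.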 The class given is functional. In general terms: In a reporter assay the amount or activity of a reporter protein is the signal.

In assay [6] the target is T1, Disintegrin and metalloproteinase domain-containing protein 17. Nature of the assay: exosite inhibitors of ADAM17, dose response, biochemical (AID 743260).
Assay [7] is described as follows: ADAM10 inhibitors, peptide cleavage, dose response, biochemical, QFRET (AID 743254).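 Further: ADAM10 enzyme with the DM2 quenched FRET peptide as substrate; EDANS fluorescence gain as the protease cuts the substrate; inhibitor potency against ADAM10 proteolytic activity.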
The target of the next assay is T4, Aminopeptidase N (Plasmodium falciparum FcB1/Columbia, UniProt O96935).
T4 sequence (O96935 whole entry): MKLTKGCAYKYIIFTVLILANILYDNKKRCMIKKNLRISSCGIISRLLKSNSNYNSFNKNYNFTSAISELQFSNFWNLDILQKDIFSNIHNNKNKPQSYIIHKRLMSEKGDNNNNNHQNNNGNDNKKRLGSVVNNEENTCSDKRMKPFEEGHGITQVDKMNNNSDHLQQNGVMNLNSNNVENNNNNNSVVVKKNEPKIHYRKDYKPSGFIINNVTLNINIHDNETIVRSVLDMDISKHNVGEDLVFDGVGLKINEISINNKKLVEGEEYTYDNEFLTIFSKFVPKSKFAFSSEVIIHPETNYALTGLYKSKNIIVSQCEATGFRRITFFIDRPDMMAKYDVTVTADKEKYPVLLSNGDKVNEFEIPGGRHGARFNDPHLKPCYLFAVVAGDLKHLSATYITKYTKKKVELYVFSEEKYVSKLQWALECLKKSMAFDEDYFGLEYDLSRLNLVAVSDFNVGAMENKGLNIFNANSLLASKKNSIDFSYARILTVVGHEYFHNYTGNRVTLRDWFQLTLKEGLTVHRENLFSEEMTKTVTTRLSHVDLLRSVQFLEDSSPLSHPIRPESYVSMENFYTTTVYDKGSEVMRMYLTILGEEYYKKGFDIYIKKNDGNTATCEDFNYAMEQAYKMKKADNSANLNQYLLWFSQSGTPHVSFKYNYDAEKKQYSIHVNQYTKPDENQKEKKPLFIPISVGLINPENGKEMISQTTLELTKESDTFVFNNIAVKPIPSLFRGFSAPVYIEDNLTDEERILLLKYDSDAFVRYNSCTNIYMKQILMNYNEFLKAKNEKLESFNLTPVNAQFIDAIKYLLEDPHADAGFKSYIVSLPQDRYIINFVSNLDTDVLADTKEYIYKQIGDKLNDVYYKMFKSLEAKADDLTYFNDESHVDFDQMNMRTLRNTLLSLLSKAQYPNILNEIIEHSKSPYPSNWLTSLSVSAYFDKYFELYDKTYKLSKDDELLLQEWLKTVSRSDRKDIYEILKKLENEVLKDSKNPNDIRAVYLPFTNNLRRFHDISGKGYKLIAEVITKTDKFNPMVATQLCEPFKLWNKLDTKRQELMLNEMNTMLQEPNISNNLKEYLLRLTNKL
Nature of the assay: P. falciparum M1AAP inhibitors, biochemical, fluorogenic H-Leu-NHMec substrate, 1536-well (AID 1445). On the set-up: species or system Plasmodium falciparum 3D7, 3D7.

Assay [8] can be described thus: A375 melanoma cell viability loss, dose response, counter-screen for MITF inhibitor project, CellTiter-Glo luminescence, dry powder, set 4 (AID 624364).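 Further: A375 melanoma cells are MITF independent so this is a counter screen.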 Type of assay: functional, cell-based. The note with it: A-375.

Calls of active or inactive are those of the source.

T1 sequence (P78536 whole entry, the tested form may be a part): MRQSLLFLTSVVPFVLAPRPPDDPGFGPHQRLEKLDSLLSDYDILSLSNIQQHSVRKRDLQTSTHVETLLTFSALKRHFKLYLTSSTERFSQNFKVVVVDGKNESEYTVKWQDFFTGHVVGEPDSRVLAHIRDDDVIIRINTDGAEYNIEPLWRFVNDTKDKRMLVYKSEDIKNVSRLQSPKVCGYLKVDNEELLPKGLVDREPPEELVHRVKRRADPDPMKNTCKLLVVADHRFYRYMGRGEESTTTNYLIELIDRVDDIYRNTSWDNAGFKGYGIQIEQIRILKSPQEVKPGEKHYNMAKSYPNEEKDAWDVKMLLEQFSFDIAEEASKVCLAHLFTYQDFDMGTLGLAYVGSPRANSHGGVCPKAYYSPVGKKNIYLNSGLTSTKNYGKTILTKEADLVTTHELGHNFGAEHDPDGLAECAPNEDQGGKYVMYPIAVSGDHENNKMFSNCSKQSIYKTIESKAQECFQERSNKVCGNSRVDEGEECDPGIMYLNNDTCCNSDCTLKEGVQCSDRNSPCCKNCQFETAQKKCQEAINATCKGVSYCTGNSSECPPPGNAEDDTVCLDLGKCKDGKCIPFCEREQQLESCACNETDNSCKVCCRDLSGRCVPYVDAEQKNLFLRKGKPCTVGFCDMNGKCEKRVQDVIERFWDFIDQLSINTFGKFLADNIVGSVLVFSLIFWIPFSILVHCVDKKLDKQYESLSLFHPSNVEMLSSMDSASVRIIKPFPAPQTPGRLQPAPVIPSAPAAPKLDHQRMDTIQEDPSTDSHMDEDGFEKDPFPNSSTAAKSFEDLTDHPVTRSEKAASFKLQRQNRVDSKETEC
Chain of Kallikrein-7 (P49862 whole entry): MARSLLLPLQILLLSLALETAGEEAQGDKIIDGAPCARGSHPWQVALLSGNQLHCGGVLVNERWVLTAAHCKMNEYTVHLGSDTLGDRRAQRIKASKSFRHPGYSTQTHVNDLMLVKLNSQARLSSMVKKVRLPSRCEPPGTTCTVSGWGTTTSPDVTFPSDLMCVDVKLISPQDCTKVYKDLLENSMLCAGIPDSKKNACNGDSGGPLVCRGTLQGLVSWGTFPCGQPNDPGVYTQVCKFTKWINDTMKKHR

In general, IC50 refers to the midpoint of a concentration-inhibition curve. For `CC(C)C[C@H](NC(=O)c1nc[nH]c1C(=O)Nc1ccc(CNC(=O)OC(C)(C)C)cc1)C(=O)OC(C)(C)C`, the IC50 in [1] is > 69.5 µM (inactive).

A word on the EC50: it is the concentration at which the effect is half-maximal. Broadly, the AC50 is the concentration giving half of the maximal activity seen. As to `CCC(C)C(NS(=O)(=O)c1ccc(C)cc1)C(=O)Oc1ccc2c3c(c(=O)oc2c1)CCC3` (stereo not drawn), the EC50 at Kallikrein-7 is > 69.5 µM (inactive). On Cytochrome P450 1A2, the AC50 is 11.2 µM (inconclusive).

Turning to `COc1cc(-c2nc(-c3ccc4c(c3)-c3ccccc3S4(=O)=O)c(-c3ccccc3)[nH]2)cc(OC)c1O`, in assay [2], the IC50 was > 69.5 µM (inactive). For the same compound, the EC50 is 14 µM (active) in assay [3] and 19.8 µM (active) in assay [4].

Take `COc1cc(-c2nc(-c3ccccc3)c(-c3ccc4c(c3)-c3ccccc3S4(=O)=O)[nH]2)cc(OC)c1O`: the EC50 in assay [5] is 101 µM (active). Also, the IC50 in [6] was > 69.5 µM (inactive).

As to `COc1ccc(NC(S)=Nc2cc(-c3ccccc3)[nH]n2)cc1Cl`, the IC50 in assay [1] and in [7] was > 69.5 µM (inactive) in each case.

As to `CCN(CC)CCCNc1oc(/C=C/c2ccccc2)nc1C#N`, the IC50 on Aminopeptidase N was 61 µM (active). For the same compound, the EC50 on Kallikrein-7 was > 69.5 µM (inactive).

For the compound `C=CCNC1=C(NS(=O)(=O)c2cccs2)C(=O)c2ccccc2C1=O`, in [8], the AC50 is > 70 µM (inactive).
